Results as given in patent publication US7300950B2, “Pyrazole derivatives, their preparation and their use in pharmaceuticals” (Aventis Pharma Deutschland GmbH, priority 1997, dated 2007).

Key:
[1] = target: T1, soluble guanylate cyclase (sGC) isolated from bovine lung (Bos taurus, UniProt P16068+P19687); test: Activation of the soluble guanylate cyclase (cGMP enzyme immunoassay); format: biochemical; conditions: n-fold stimulation of basal enzyme activity = [cGMP]test substance/[cGMP]control
T1 construct: The sGC which was employed had been isolated from bovine lung; from tissue; host or cells: bovine lung
T1 sequence (P16068 1-619): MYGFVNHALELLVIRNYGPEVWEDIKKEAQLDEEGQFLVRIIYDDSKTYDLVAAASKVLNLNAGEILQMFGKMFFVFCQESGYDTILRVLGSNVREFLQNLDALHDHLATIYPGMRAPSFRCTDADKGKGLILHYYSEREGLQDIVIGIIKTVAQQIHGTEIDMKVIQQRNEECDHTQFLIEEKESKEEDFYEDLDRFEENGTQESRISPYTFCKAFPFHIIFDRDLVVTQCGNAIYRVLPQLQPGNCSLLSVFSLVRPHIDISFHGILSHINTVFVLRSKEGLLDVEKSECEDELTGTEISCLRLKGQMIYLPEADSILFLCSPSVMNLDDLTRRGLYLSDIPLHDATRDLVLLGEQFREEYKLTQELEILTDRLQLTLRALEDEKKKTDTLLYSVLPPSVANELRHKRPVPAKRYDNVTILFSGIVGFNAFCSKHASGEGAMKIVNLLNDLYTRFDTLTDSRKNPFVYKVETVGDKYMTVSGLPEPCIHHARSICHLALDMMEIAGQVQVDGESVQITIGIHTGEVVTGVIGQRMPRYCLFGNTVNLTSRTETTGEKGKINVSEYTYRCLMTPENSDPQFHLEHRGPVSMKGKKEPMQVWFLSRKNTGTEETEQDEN
T1 sequence (P19687 1-691): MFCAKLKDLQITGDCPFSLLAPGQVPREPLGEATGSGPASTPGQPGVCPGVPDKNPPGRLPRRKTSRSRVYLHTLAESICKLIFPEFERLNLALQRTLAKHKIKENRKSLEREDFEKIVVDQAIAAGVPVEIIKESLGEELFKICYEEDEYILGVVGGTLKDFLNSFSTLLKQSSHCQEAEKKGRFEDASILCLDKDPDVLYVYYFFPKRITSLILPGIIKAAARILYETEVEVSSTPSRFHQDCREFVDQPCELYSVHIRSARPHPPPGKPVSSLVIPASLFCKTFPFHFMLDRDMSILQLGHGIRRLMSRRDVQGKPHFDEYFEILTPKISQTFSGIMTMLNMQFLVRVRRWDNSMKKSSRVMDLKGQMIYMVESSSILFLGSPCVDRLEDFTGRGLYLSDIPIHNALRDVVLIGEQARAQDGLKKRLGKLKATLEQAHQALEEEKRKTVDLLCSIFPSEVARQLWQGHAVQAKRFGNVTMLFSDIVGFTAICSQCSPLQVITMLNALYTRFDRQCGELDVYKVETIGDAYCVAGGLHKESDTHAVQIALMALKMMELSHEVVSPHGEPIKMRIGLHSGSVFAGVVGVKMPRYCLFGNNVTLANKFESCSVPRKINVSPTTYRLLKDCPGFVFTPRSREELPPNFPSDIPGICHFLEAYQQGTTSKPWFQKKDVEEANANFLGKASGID
Method: 1. Activation of the Soluble Guanylate Cyclase
The activation of the sGC, which catalyzes the conversion of GTP into cyclic guanosine monophosphate cGMP and pyrophosphate, by the compounds according to the invention was quantified with the aid of an enzyme immunoassay “EIA” from Amersham. For this purpose the substances to be tested were initially incubated with sGC in microtiter plates, and the amount of the cGMP formed was then determined.
The test solutions (100 μl per well) contained 50 mM triethanolamine “TEA” buffer (pH 7.5), 3 mM MgCl2, 3 mM reduced glutathione “GSH,” 0.1 mM GTP, 1 mM 3-isobutyl-1-methylxanthine “IBMX,” suitably diluted enzyme solution and the substance to be tested or, in the control experiments, the solvent. […] The DMSO concentration in the test solution was 5% (v/v). The reaction was initiated by addition of the sGC. The reaction mixture was incubated at 37° C. for 15 to 20 minutes and then stopped by ice-cooling and addition of the stop reagent (50 mM EDTA, pH 8.0). An aliquot of 50 μl was taken and used for determining the cGMP content using the acetylation protocol of the Amersham cGMP-EIA kit. The absorption of the samples was measured at 450 nm (reference wavelength 620 nm) in a microtiter plate reader. The cGMP concentration was determined using a standard curve which was obtained under the same test conditions. […] This is calculated using the formula: n-fold stimulation=[cGMP]test substance/[cGMP]control.

rat aorta rings = test: Relaxation of rat aorta (phenylephrine-precontracted aorta rings, organ bath); design: species or system rat (Wistar-Kyoto); conditions: concentration by which phenylephrine (1 μM) contraction is inhibited by 50% (50% relaxation)
Excerpt: 2. Relaxation of Rat Aorta
For this test, normotensive male Wistar-Kyoto rats were sacrificed by a blow to the neck. The abdominal cavity and the thorax were opened by a medium sternotomy. The descending aorta was subsequently removed, freed of connective tissue and divided into 8 rings of a length of approximately 4 mm. The tip of a pair of tweezers was introduced into the lumen of 4 of the 8 rings. The endothelium was removed by carefully rolling the rings over the tip of the pair of tweezers. All 8 aorta rings (4 with endothelium and 4 without endothelium) were subsequently suspended in an organ bath (Schuler-Organbad; Hugo Sachs Elektronik) at a constant temperature of 37° C. for the isometric determination of the contractile tone. For 30 minutes, the rings were calibrated at a resting tension of 1 g in carbonated (95% O2; 5% CO2) Krebs-Henseleit solution (composition: Na^+ 144.0 mM; K^+ 5.9 mM; Cl^− 126.9 mM; Ca^2+ 1.6 mM; Mg^2+ 1.2 mM; H2PO4^− 1.2 mM; SO4^2− 1.2 mM; HCO3^− 25.0 mM; D-glucose 11.1 mM) of pH 7.4. […] After a 30-minute washing period, the rings were then again precontracted by addition of phenylephrine (1 μM), and the relaxing action of the test substances of the formula I was determined by administration of cumulative doses of the latter. The data were evaluated by standard methods. […]

Row | SMILES | melting point [°C] | also measured
1 | O=C(Nc1ccccc1)c1ccc(-c2nn(Cc3ccccc3)c3ccccc23)o1 [Example 21, 1-Benzyl-3-(5-(N-phenylcarbamoyl)-2-furyl)indazole] | 138 to 143 | n-fold stimulation ([1]; concentration 100 μM): 3-fold
2 | O=C(NCc1ccccn1)c1ccc(-c2nn(Cc3ccccc3)c3ccccc23)o1 [Example 38, 1-Benzyl-3-(5-(N-(2-pyridylmethyl)carbamoyl)-2-furyl)indazole] | 160 | –
3 | O=C(Nc1ccc2ccccc2c1)c1ccc(-c2nn(Cc3ccccc3)c3ccccc23)o1 [Example 24, 1-Benzyl-3-(5-(N-(2-naphthyl)carbamoyl)-2-furyl)indazole] | 167 | –
4 | OC(c1ccccc1)c1ccc(-c2nn(Cc3ccccc3)c3ccccc23)o1 (stereo not shown) [Example 43, 1-Benzyl-3-(5-(1-hydroxy-1-phenylmethyl)-2-furyl)indazole] | 138 to 139 | –
5 | COc1ccc(NC(=O)c2ccc(-c3nn(Cc4ccccc4)c4ccccc34)o2)cc1 [Example 28, 1-Benzyl-3-(5-(N-(4-methoxyphenyl)carbamoyl)-2-furyl)indazole] | 175 | –
6 | CN(C(=O)c1ccc(-c2nn(Cc3ccccc3)c3ccccc23)o1)c1ccccc1 [Example 27, 1-Benzyl-3-(5-(N-methyl-N-phenylcarbamoyl)-2-furyl)indazole] | 190 | –
7 | O=C(O)c1ccc(-c2nn(-c3cc(C(F)(F)F)cc(C(F)(F)F)c3)c3ccccc23)o1 [Example 4, 3-(5-Carboxy-2-furyl)-1-(3,5-bis(trifluoromethyl)phenyl)indazole] | 256 to 257 | –
8 | CN(C)CCNC(=O)c1ccc(-c2nn(Cc3ccccc3)c3ccccc23)o1 [Example 35, 1-Benzyl-3-(5-(N-(2-dimethylaminoethyl)carbamoyl)-2-furyl)indazole] | 130 | –
9 | CCOC(=O)c1ccc(-c2nn(-c3cc(C(F)(F)F)cc(C(F)(F)F)c3)c3ccccc23)o1 [Example 5, 3-(5-Ethoxycarbonyl-2-furyl)-1-(3,5-bis(trifluoromethyl)phenyl)indazole] | 128 to 129 | –
10 | NC(=O)CNC(=O)c1ccc(-c2nn(Cc3ccccc3)c3ccccc23)o1 [Example 37, 1-Benzyl-3-(5-(N-(carbamoylmethyl)carbamoyl)-2-furyl)indazole] | 219 to 222 | –
11 | O=C(Nc1ccccc1O)c1ccc(-c2nn(Cc3ccccc3)c3ccccc23)o1 [Example 29, 1-Benzyl-3-(5-(N-(2-hydroxyphenyl)carbamoyl)-2-furyl)indazole] | 196 to 197 | –
12 | O=C(NOCc1ccccc1)c1ccc(-c2nn(Cc3ccccc3)c3ccccc23)o1 [Example 26, 1-Benzyl-3-(5-(N-(benzyloxy)carbamoyl)-2-furyl)indazole] | 140 to 143 | –
13 | CC(C)NC(=O)c1ccc(-c2nn(Cc3ccccc3)c3ccccc23)o1 [Example 31, 1-Benzyl-3-(5-(N-isopropylcarbamoyl)-2-furyl)indazole] | 156 | –
14 | CCCNC(=O)c1ccc(-c2nn(Cc3ccccc3)c3ccccc23)o1 [Example 32, 1-Benzyl-3-(5-(N-(n-propyl)carbamoyl)-2-furyl)indazole] | 152 | –
15 | CNC(=O)c1ccc(-c2nn(Cc3ccccc3)c3ccccc23)o1 [Example 40, 1-Benzyl-3-(5-(N-methylcarbamoyl)-2-furyl)indazole] | – | n-fold stimulation ([1]; concentration 100 μM): 2.4-fold; IC50 (rat aorta rings; Ring with endothelium): 2.4 µM; IC50 (rat aorta rings; Ring without endothelium): 0.2 µM
16 | O=C(NCc1ccccc1)c1ccc(-c2nn(Cc3ccccc3)c3ccccc23)o1 [Example 34, 1-Benzyl-3-(5-(N-benzylcarbamoyl)-2-furyl)indazole] | 113 to 124 | –
17 | O=C(OCCO)c1ccc(-c2nn(Cc3ccccc3)c3ccccc23)o1 [Example 7, 1-Benzyl-3-(5-((2-hydroxyethoxy)carbonyl)-2-furyl)indazole] | – | n-fold stimulation ([1]; concentration 100 μM): 5.5-fold
18 | O=C(NC1CCCCC1)c1ccc(-c2nn(Cc3ccccc3)c3ccccc23)o1 [Example 33, 1-Benzyl-3-(5-(N-cyclohexylcarbamoyl)-2-furyl)indazole] | 165 | –
19 | CC(C)N(CCNC(=O)c1ccc(-c2nn(Cc3ccccc3)c3ccccc23)o1)C(C)C [Example 36, 1-Benzyl-3-(5-(N-(2-diisopropylaminoethyl)carbamoyl)-2-furyl)indazole] | 119 to 127 | –
20 | O=C(Nc1ccc([N+](=O)[O-])cc1)c1ccc(-c2nn(Cc3ccccc3)c3ccccc23)o1 [Example 23, 1-Benzyl-3-(5-(N-(4-nitrophenyl)carbamoyl)-2-furyl)indazole] | 204 to 208 | –
21 | OCc1ccc(-c2nn(-c3cc(C(F)(F)F)cc(C(F)(F)F)c3)c3ccccc23)o1 [Example 6, 3-(5-Hydroxymethyl-2-furyl)-1-(3,5-bis(trifluoromethyl)phenyl)indazole] | 136 to 138 | n-fold stimulation ([1]; concentration 10 μM): 3.3-fold
22 | O=C(Nc1nccs1)c1ccc(-c2nn(Cc3ccccc3)c3ccccc23)o1 [Example 25, 1-Benzyl-3-(5-(N-(2-thiazolyl)carbamoyl)-2-furyl)indazole] | 167 to 168 | n-fold stimulation ([1]; concentration 10 μM): 2.8-fold
23 | O=C(Nc1ccc(Cl)cc1)c1ccc(-c2nn(Cc3ccccc3)c3ccccc23)o1 [Example 22, 1-Benzyl-3-(5-(N-(4-chlorophenyl)carbamoyl)-2-furyl)indazole] | 202 to 205 | –
